Patent US20140323506A1, “COMBINATION” (GlaxoSmithKline Intellectual Property Development Limited, priority 2010, published 2014)

Assays:
Type in all cases: in vivo, CD-1 nude mice
[1] = system: A375P F11s tumor xenografts; assay: A375P F11s tumor xenograft efficacy in nude mice
[2] = system: A375P F11s tumor xenografts; assay: A375P F11s tumor xenograft efficacy in nude mice; remark: listed apart in the source
Description: (§1) Female CD-1 nude mice of 6-8 weeks in age were used in these studies; all mice were obtained from Charles River Laboratories (Wilmington, Del.). Animals were housed in pathogen free conditions and handled with aseptic technique.
The A375P F11s cell line, encoding a mutation for BRAF^V600E, was subcloned from the A375P human melanoma cell line (obtained from ATCC, Cat # CRL-1619).
The A375P F11s cell lines were grown in RPMI growth medium supplemented with 10% fetal bovine serum (FBS), 1% sodium pyruvate and 1% penicillin-streptomycin in a humidified 37° C. chamber with 5% CO2. Cells were expanded to obtain the large numbers of cells required for each injection; cells were grown in log phase, without reaching confluency and passaged regularly.
A375P F11s cells were harvested from culture flasks by exposure to 0.25% trypsin/EDTA for 5 min at 37° C. Detached cells were collected, centrifuged (1500 rpm, 5 min, 4° C.) and rinsed to remove the trypsin solution. Cells were re-suspended in PBS without magnesium or calcium and counted. Cells were spun as described previously to remove PBS and a single cell suspension was created in 50% Matrigel: 50% PBS (v:v) so that a 100 μL subcutaneous injection would deliver 1.75 million cells per mouse.
Compounds were administered in vehicles as described below.
(§2) Mice with similar sized tumors (100-300 mm^3) were identified. The length and width of the tumors were measured by handheld calipers and body weights of the mice were measured using a bench top weighing scale. Tumor volumes were calculated based on the following formula: tumor volume=(Length×Width^2)/2. Mice were block randomized into the required number of dosing groups (n=8 mice/group). The randomization process ensured that the average tumor volume for each dosing group was approximately equal at the beginning of the study and mice with differing tumor volumes were evenly distributed. Mice were placed in groups of eight accordingly and dosed with either vehicle or compound for 36 days either once or twice daily, as summarised in the table below. Mice were weighed and tumors measured twice weekly for the duration of the study using Studylog animal study management software (Studylog Systems, Inc., South San Francisco, Calif., USA).
Tumor volumes were calculated based on the following formula: tumor volume=(Length×Width^2)/2. Tumor growth curves were created from the mean±standard error of the mean, with n=8 animals per group. The percentage of tumor growth inhibition was calculated on the final day of dosing using the following formula: 1—(tumor volume in drug-treated population/tumor volume in vehicle-treated control population).

[3] = Body weight of nude mice bearing A375P F11s xenografts during treatment
Description: as §1, §2

[4] = Group 3: Compound B 0.1 mg/kg PO QD, study day 3
[5] = Group 3: Compound B 0.1 mg/kg PO QD, study day 22
[6] = Group 6: Compound B 0.3 mg/kg PO QD, study day 0
[7] = Group 6: Compound B 0.3 mg/kg PO QD, study day 9
[8] = Group 6: Compound B 0.3 mg/kg PO QD, study day 15
[9] = Group 6: Compound B 0.3 mg/kg PO QD, study day 22
[10] = Group 3: Compound B 0.1 mg/kg PO QD, study day 0
[11] = Group 3: Compound B 0.1 mg/kg PO QD, study day 7
[12] = Group 3: Compound B 0.1 mg/kg PO QD, study day 9
[13] = Group 3: Compound B 0.1 mg/kg PO QD, study day 15
[14] = Group 3: Compound B 0.1 mg/kg PO QD, study day 18
[15] = Group 3: Compound B 0.1 mg/kg PO QD, study day 25
[16] = Group 3: Compound B 0.1 mg/kg PO QD, study day 28
[17] = Group 6: Compound B 0.3 mg/kg PO QD, study day 3
[18] = Group 6: Compound B 0.3 mg/kg PO QD, study day 7
[19] = Group 6: Compound B 0.3 mg/kg PO QD, study day 18
[20] = Group 6: Compound B 0.3 mg/kg PO QD, study day 25
[21] = Group 6: Compound B 0.3 mg/kg PO QD, study day 28
[22] = Group 6: Compound B 0.3 mg/kg PO QD, study day 31
[23] = Group 6: Compound B 0.3 mg/kg PO QD, study day 35
[24] = Group 6: Compound B 0.3 mg/kg PO QD, study day 37

In the case of `CC(=O)Nc1cccc(-n2c(=O)n(C3CC3)c(=O)c3c(Nc4ccc(I)cc4F)n(C)c(=O)c(C)c32)c1` [Compound B, N-{3-[3-cyclopropyl-5-(2-fluoro-4-iodo-phenylamino)-6,8-dimethy-2,4,7-trioxo-3,4,6,7-tetrahydro-2H-pyrido[4,3-d]pyrimidin-1-yl]phenyl}acetamide], the “Percent inhibition of tumor volume compared to vehicle treated mice” value (shortened to “Percent inhibition of tumor volume”) [1, 4] is reported as −4.1%, the “Percent inhibition of tumor volume” value [1, 5] is reported as 2.1% and the “Percent inhibition of tumor volume” value [1, 6] is reported as −15.41%. The “Percent inhibition of tumor volume” value [1, 7] was 68.1%, the “Percent inhibition of tumor volume” value [1, 8] was 82.0% and the “Percent inhibition of tumor volume” value [1, 9] was 76.8%. For the same compound, the “smaller tumors compared to vehicle control” value ([2]; Compound B 0.3 mg/kg QD) was 70.4%, the “tumor volume course under extended treatment” value ([2]; Compound B alone 0.3 mg/kg, treatment continued until day 37) was “tumor volume started to increase even under continued drug treatment” and the Mean tumor volume [2, 10] was 199.3 mm^3. The “Percent inhibition of tumor volume” value [2, 10] was −15.70%, the Mean tumor volume [2, 4] was 260.5 mm^3 and the Mean tumor volume [2, 11] was 300.8 mm^3. The “Percent inhibition of tumor volume” value [2, 11] was 3.1%, the Mean tumor volume [2, 12] was 335.1 mm^3 and the “Percent inhibition of tumor volume” value [2, 12] was 14.2%. For the same compound, the Mean tumor volume [2, 13] was 459.3 mm^3, the “Percent inhibition of tumor volume” value [2, 13] was 28.2% and the Mean tumor volume [2, 14] was 616.2 mm^3. For the same compound, the “Percent inhibition of tumor volume” value [2, 14] was 15.3%, the Mean tumor volume [2, 5] was 916.9 mm^3 and the Mean tumor volume [2, 15] was 1,100.3 mm^3. The “Percent inhibition of tumor volume” value [2, 15] was −1.0%, the Mean tumor volume [2, 16] was 1,338.4 mm^3 and the “Percent inhibition of tumor volume” value [2, 16] was −6.8%. For the same compound, the Mean tumor volume [2, 6] was 198.8 mm^3, the Mean tumor volume [2, 17] was 205.9 mm^3 and the “Percent inhibition of tumor volume” value [2, 17] was 17.7%. The Mean tumor volume [2, 18] was 141.2 mm^3, the “Percent inhibition of tumor volume” value [2, 18] was 54.5% and the Mean tumor volume [2, 7] was 124.4 mm^3. The Mean tumor volume [2, 8] was 115.1 mm^3, the Mean tumor volume [2, 19] was 141.4 mm^3 and the “Percent inhibition of tumor volume” value [2, 19] was 80.5%. The Mean tumor volume [2, 9] was 217.3 mm^3, the Mean tumor volume [2, 20] was 300.3 mm^3 and the “Percent inhibition of tumor volume” value [2, 20] was 72.4%. For the same compound, the Mean tumor volume [2, 21] was 370.6 mm^3, the “Percent inhibition of tumor volume” value [2, 21] was 70.4% and the Mean tumor volume [2, 22] was 450.5 mm^3. The Mean tumor volume [2, 23] was 529.1 mm^3, the Mean tumor volume [2, 24] was 604.4 mm^3 and the Mean body weight [3, 10] was 26.30 g. The Mean body weight [3, 4] was 26.00 g, the Mean body weight [3, 11] was 26.24 g and the Mean body weight [3, 12] was 26.23 g. For the same compound, the Mean body weight [3, 13] was 26.09 g, the Mean body weight [3, 14] was 27.09 g and the Mean body weight [3, 5] was 26.73 g. The Mean body weight [3, 15] was 26.80 g, the Mean body weight [3, 16] was 26.93 g and the Mean body weight [3, 6] was 24.59 g. It also gave a Mean body weight [3, 17] of 24.10 g, a Mean body weight [3, 18] of 23.89 g and a Mean body weight [3, 7] of 23.93 g. The Mean body weight [3, 8] was 23.94 g, the Mean body weight [3, 19] was 24.41 g and the Mean body weight [3, 9] was 23.83 g. For the same compound, the Mean body weight [3, 20] was 23.95 g, the Mean body weight [3, 21] was 24.18 g and the Mean body weight [3, 22] was 24.49 g. It also gave a Mean body weight [3, 23] of 24.54 g and a Mean body weight [3, 24] of 24.64 g.

`Cc1ccc(Nc2nccc(N(C)c3ccc4c(C)n(C)nc4c3)n2)cc1S(N)(=O)=O` [Compound A, 5-[[4-[(2,3-dimethyl-2H-indazol-6-yl)methylamino]-2-pyrimidinyl]amino]-2-methylbenzenesulfonamide, reference compound] gave a Mean body weight ([3]; Group 2: Compound A 100 mg/kg PO BID, study day 0) of 24.98 g, a Mean body weight ([3]; Group 2: Compound A 100 mg/kg PO BID, study day 3) of 25.13 g and a Mean body weight ([3]; Group 2: Compound A 100 mg/kg PO BID, study day 7) of 25.63 g. The Mean body weight ([3]; Group 2: Compound A 100 mg/kg PO BID, study day 9) was 25.29 g, the Mean body weight ([3]; Group 2: Compound A 100 mg/kg PO BID, study day 15) was 24.83 g and the Mean body weight ([3]; Group 2: Compound A 100 mg/kg PO BID, study day 18) was 25.35 g. For the same compound, the Mean body weight ([3]; Group 2: Compound A 100 mg/kg PO BID, study day 22) was 24.71 g, the Mean body weight ([3]; Group 2: Compound A 100 mg/kg PO BID, study day 25) was 24.79 g and the Mean body weight ([3]; Group 2: Compound A 100 mg/kg PO BID, study day 28) was 24.91 g. The Mean body weight ([3]; Group 2: Compound A 100 mg/kg PO BID, study day 31) was 25.33 g, the Mean body weight ([3]; Group 2: Compound A 100 mg/kg PO BID, study day 35) was 24.95 g and the Mean body weight ([3]; Group 2: Compound A 100 mg/kg PO BID, study day 37) was 25.00 g.
